In patent US20230111310A1, “CARBOXYLIC ACID DERIVATIVE-SUBSTITUTED IMINO ARYL COMPOUND, PREPARATION METHOD THEREFOR, HERBICIDAL COMPOSITION AND USE THEREOF” (Qingdao Kingagroot Chemical Compound Co., Ltd., priority 2020, published 2023):

Experiments:
Experiment in all cases: Weeding effect in post-emergence stage
Format in all cases: in vivo
Alopecurus japonicus = settings: for Weeding effect in post-emergence stage, Alopecurus japonicus: level of fresh weight growth control rate; for Weeding effect in post-emergence stage, Alopecurus japonicus (level): fresh weight control rate level
Method in brief: (§1)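 Seeds are sown in soil-filled pots under 0.5-2 cm soil and grown 2 weeks in greenhouse. Plants at 2-3 leaves are sprayed with compound (acetone, Tween 80, 1.5 liter/ha methyl oleate EC, water) at 7.5 to 500 g/ha. Damage is rated 3 weeks later, averaging three repeats.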

Setaria viridis = settings: for Weeding effect in post-emergence stage, Setaria viridis: level of fresh weight growth control rate; for Weeding effect in post-emergence stage, Setaria viridis (level): fresh weight control rate level
Method in brief: as §1

Eleusine indica = settings: for Weeding effect in post-emergence stage, Eleusine indica: level of fresh weight growth control rate; for Weeding effect in post-emergence stage, Eleusine indica (level): fresh weight control rate level
Method in brief: as §1

Digitaria sanguinalis = settings: for Weeding effect in post-emergence stage, Digitaria sanguinalis: level of fresh weight growth control rate; for Weeding effect in post-emergence stage, Digitaria sanguinalis (level): fresh weight control rate level
Method in brief: as §1

Abutilon theophrasti = settings: for Weeding effect in post-emergence stage, Abutilon theophrasti: level of fresh weight growth control rate; for Weeding effect in post-emergence stage, Abutilon theophrasti (level): fresh weight control rate level
Method in brief: as §1

Echinochloa crusgalli = settings: for Weeding effect in post-emergence stage, Echinochloa crusgalli: level of fresh weight growth control rate; for Weeding effect in post-emergence stage, Echinochloa crusgalli (level): fresh weight control rate level
Description: The activity level criteria for plant damage (i.e., growth control rate) are as follows:
Monocotyledonous and dicotyledonous weed seeds (Descurainia sophia, Capsella bursa-pastoris, Abutilon theophrasti, Galium aparine, Stellaria media, Lithospermum arvense, rorippa indica, Alopecurus aequalis, Alopecurus japonicus, Eleusine indica, Beckmannia syzigachne, Sclerochloa dura, Conyza Canadensis, Phleum paniculatum, Veronica didyma Tenore, Bromus japonicus, Aegilops tauschii, Phalaris arundinacea, Amaranthus retroflexus, Chenopodiaceae, Commelina communis, Sonchus arvensis, Convolvulus arvensis, Cirsium setosum, Bidens tripartita L., Solanum nigrum, Acalypha australis, Digitaria sanguinalis, Echinochloa crusgalli, Setaria viridis, Setaria glauca, Leptochloa chinensis, Monochoria vaginalis, Sagittaria trifolia, Scirpus juncoides, Cyperus rotundus, Cyperus iria, Cyperus difformis, Fimbristylis, Portulaca oleracea, Xanthium sibiricum, Pharbitis nil, etc.) and major crop seeds (wheat, corn, rice, soybean, cotton, oilseed rape, millet, sorghum, potato, sesame, ricinus, etc.) were placed in plastic pots filled with soil, then covered with 0.5-2 cm of soil, allowed to grow in a good greenhouse environment. After 2 weeks of sowing, the test plants were treated in the 2-3 leaf stage. The tested compounds of the present invention were respectively dissolved in acetone, then added with Tween 80 and 1.5 liter/ha of emulsifiable concentrate of methyl oleate as synergist, diluted with a certain amount of water to obtain a solution with a certain concentration, and sprayed with a spray tower onto the plants. After the application, the plants were cultured for 3 weeks in the greenhouse, and then the experimental results of the weeding were counted. The doses of the used compounds were 500, 250, 125, 60, 30, 15, 7.5 g/ha, and the averages were obtained by repeating for three times.

Structure (SMILES): CC(C)=NOCCOC(=O)C(C)O/N=C/c1cc(-n2c(=O)cc(C(F)(F)F)n(C)c2=O)c(F)cc1Cl (stereo not drawn) [Compound 259]
- Weeding effect in post-emergence stage, Alopecurus japonicus (Alopecurus japonicus; Dose 30 g/ha): 5 (Level 5: growth control rate is above 85%)
- Weeding effect in post-emergence stage, Setaria viridis (Setaria viridis; Dose 30 g/ha): 5 (Level 5: growth control rate is above 85%)
- Weeding effect in post-emergence stage, Eleusine indica (Eleusine indica; Dose 30 g/ha): 5 (Level 5: growth control rate is above 85%)
- Weeding effect in post-emergence stage, Digitaria sanguinalis (Digitaria sanguinalis; Dose 30 g/ha): 5 (Level 5: growth control rate is above 85%)
- Weeding effect in post-emergence stage, Abutilon theophrasti (Abutilon theophrasti; Dose 30 g/ha): 5 (Level 5: growth control rate is above 85%)
- Weeding effect in post-emergence stage, Echinochloa crusgalli (Echinochloa crusgalli; Dose 30 g/ha): 5 (Level 5: growth control rate is above 85%)

Structure (SMILES): CCC[C@@H](O/N=C/c1cc(-n2c(=O)cc(C(F)(F)F)n(C)c2=O)c(F)cc1Cl)C(=O)OC [316(R)]
- Weeding effect in post-emergence stage, Alopecurus japonicus (Alopecurus japonicus; Dose 15 g/ha): 5 (Level 5: growth control rate is above 85%)
- Weeding effect in post-emergence stage, Setaria viridis (Setaria viridis; Dose 15 g/ha): 5 (Level 5: growth control rate is above 85%)
- Weeding effect in post-emergence stage, Eleusine indica (Eleusine indica; Dose 15 g/ha): 5 (Level 5: growth control rate is above 85%)
- Weeding effect in post-emergence stage, Digitaria sanguinalis (Digitaria sanguinalis; Dose 15 g/ha): 5 (Level 5: growth control rate is above 85%)
- Weeding effect in post-emergence stage, Abutilon theophrasti (Abutilon theophrasti; Dose 15 g/ha): 5 (Level 5: growth control rate is above 85%)
- Weeding effect in post-emergence stage, Echinochloa crusgalli (Echinochloa crusgalli; Dose 15 g/ha): 5 (Level 5: growth control rate is above 85%)

Structure (SMILES): C[C@@H](O/N=C/c1cc(-n2c(=O)cc(C(F)(F)F)n(C)c2=O)c(F)cc1Cl)C(=O)NS(=O)(=O)CCl [503(R)]
- Weeding effect in post-emergence stage, Alopecurus japonicus (level) (Alopecurus japonicus; Dose 15 g/ha): 5 (Level 5: growth control rate is above 85%)
- Weeding effect in post-emergence stage, Setaria viridis (level) (Setaria viridis; Dose 15 g/ha): 5 (Level 5: growth control rate is above 85%)
- Weeding effect in post-emergence stage, Eleusine indica (level) (Eleusine indica; Dose 15 g/ha): 5 (Level 5: growth control rate is above 85%)
- Weeding effect in post-emergence stage, Digitaria sanguinalis (level) (Digitaria sanguinalis; Dose 15 g/ha): 5 (Level 5: growth control rate is above 85%)
- Weeding effect in post-emergence stage, Abutilon theophrasti (level) (Abutilon theophrasti; Dose 15 g/ha): 5 (Level 5: growth control rate is above 85%)
- Weeding effect in post-emergence stage, Echinochloa crusgalli (level) (Echinochloa crusgalli; Dose 15 g/ha): 5 (Level 5: growth control rate is above 85%)

Structure (SMILES): C=CCCOC(=O)[C@@H](C)O/N=C/c1cc(-n2c(=O)cc(C(F)(F)F)n(C)c2=O)c(F)cc1Cl [209(R)]
- Weeding effect in post-emergence stage, Alopecurus japonicus (Alopecurus japonicus; Dose 15 g/ha): 5 (Level 5: growth control rate is above 85%)
- Weeding effect in post-emergence stage, Setaria viridis (Setaria viridis; Dose 15 g/ha): 5 (Level 5: growth control rate is above 85%)
- Weeding effect in post-emergence stage, Eleusine indica (Eleusine indica; Dose 15 g/ha): 5 (Level 5: growth control rate is above 85%)
- Weeding effect in post-emergence stage, Digitaria sanguinalis (Digitaria sanguinalis; Dose 15 g/ha): 5 (Level 5: growth control rate is above 85%)
- Weeding effect in post-emergence stage, Abutilon theophrasti (Abutilon theophrasti; Dose 15 g/ha): 5 (Level 5: growth control rate is above 85%)
- Weeding effect in post-emergence stage, Echinochloa crusgalli (Echinochloa crusgalli; Dose 15 g/ha): 5 (Level 5: growth control rate is above 85%)

Structure (SMILES): COCC(O/N=C/c1cc(-n2c(=O)n(C)c(=S)n(C)c2=O)c(F)cc1Cl)C(=O)OC (stereo not drawn) [Compound 80]
- Weeding effect in post-emergence stage, Alopecurus japonicus (Alopecurus japonicus; Dose 15 g/ha): 5 (Level 5: growth control rate is above 85%)
- Weeding effect in post-emergence stage, Setaria viridis (Setaria viridis; Dose 15 g/ha): 5 (Level 5: growth control rate is above 85%)
- Weeding effect in post-emergence stage, Eleusine indica (Eleusine indica; Dose 15 g/ha): 5 (Level 5: growth control rate is above 85%)
- Weeding effect in post-emergence stage, Digitaria sanguinalis (Digitaria sanguinalis; Dose 15 g/ha): 5 (Level 5: growth control rate is above 85%)
- Weeding effect in post-emergence stage, Abutilon theophrasti (Abutilon theophrasti; Dose 15 g/ha): 5 (Level 5: growth control rate is above 85%)
- Weeding effect in post-emergence stage, Echinochloa crusgalli (Echinochloa crusgalli; Dose 15 g/ha): 5 (Level 5: growth control rate is above 85%)

Structure (SMILES): COC(=O)C(C)O/N=C/c1cc(-n2c(=O)cc(C(F)(F)F)n(C)c2=S)c(F)cc1C(F)(F)F (racemic) [Compound 395]
- Weeding effect in post-emergence stage, Alopecurus japonicus (level) (Alopecurus japonicus; Dose 60 g/ha): 5 (Level 5: growth control rate is above 85%)
- Weeding effect in post-emergence stage, Setaria viridis (level) (Setaria viridis; Dose 60 g/ha): 5 (Level 5: growth control rate is above 85%)
- Weeding effect in post-emergence stage, Eleusine indica (level) (Eleusine indica; Dose 60 g/ha): 5 (Level 5: growth control rate is above 85%)
- Weeding effect in post-emergence stage, Digitaria sanguinalis (level) (Digitaria sanguinalis; Dose 60 g/ha): 5 (Level 5: growth control rate is above 85%)
- Weeding effect in post-emergence stage, Abutilon theophrasti (level) (Abutilon theophrasti; Dose 60 g/ha): 5 (Level 5: growth control rate is above 85%)
- Weeding effect in post-emergence stage, Echinochloa crusgalli (level) (Echinochloa crusgalli; Dose 60 g/ha): 5 (Level 5: growth control rate is above 85%)

Structure (SMILES): CCCCCOC(=O)[C@@H](C)O/N=C/c1cc(-n2c(=O)cc(C(F)(F)F)n(C)c2=O)c(F)cc1Cl [203(R)]
- Weeding effect in post-emergence stage, Alopecurus japonicus (Alopecurus japonicus; Dose 15 g/ha): 5 (Level 5: growth control rate is above 85%)
- Weeding effect in post-emergence stage, Setaria viridis (Setaria viridis; Dose 15 g/ha): 5 (Level 5: growth control rate is above 85%)
- Weeding effect in post-emergence stage, Eleusine indica (Eleusine indica; Dose 15 g/ha): 5 (Level 5: growth control rate is above 85%)
- Weeding effect in post-emergence stage, Digitaria sanguinalis (Digitaria sanguinalis; Dose 15 g/ha): 5 (Level 5: growth control rate is above 85%)
- Weeding effect in post-emergence stage, Abutilon theophrasti (Abutilon theophrasti; Dose 15 g/ha): 5 (Level 5: growth control rate is above 85%)
- Weeding effect in post-emergence stage, Echinochloa crusgalli (Echinochloa crusgalli; Dose 15 g/ha): 5 (Level 5: growth control rate is above 85%)

Structure (SMILES): CC(O/N=C/c1cc(-n2c(=O)cc(C(F)(F)F)n(C)c2=O)c(F)cc1Cl)C(=O)OCc1cccs1 (stereo not drawn) [Compound 268]
- Weeding effect in post-emergence stage, Alopecurus japonicus (Alopecurus japonicus; Dose 30 g/ha): 5 (Level 5: growth control rate is above 85%)
- Weeding effect in post-emergence stage, Setaria viridis (Setaria viridis; Dose 30 g/ha): 5 (Level 5: growth control rate is above 85%)
- Weeding effect in post-emergence stage, Eleusine indica (Eleusine indica; Dose 30 g/ha): 5 (Level 5: growth control rate is above 85%)
- Weeding effect in post-emergence stage, Digitaria sanguinalis (Digitaria sanguinalis; Dose 30 g/ha): 5 (Level 5: growth control rate is above 85%)
- Weeding effect in post-emergence stage, Abutilon theophrasti (Abutilon theophrasti; Dose 30 g/ha): 5 (Level 5: growth control rate is above 85%)
- Weeding effect in post-emergence stage, Echinochloa crusgalli (Echinochloa crusgalli; Dose 30 g/ha): 5 (Level 5: growth control rate is above 85%)

Structure (SMILES): COC(=O)[C@@H](CC1CC1)O/N=C/c1cc(-n2c(=O)cc(C(F)(F)F)n(C)c2=O)c(F)cc1Cl [462(R)]
- Weeding effect in post-emergence stage, Alopecurus japonicus (level) (Alopecurus japonicus; Dose 15 g/ha): 5 (Level 5: growth control rate is above 85%)
- Weeding effect in post-emergence stage, Setaria viridis (level) (Setaria viridis; Dose 15 g/ha): 5 (Level 5: growth control rate is above 85%)
- Weeding effect in post-emergence stage, Eleusine indica (level) (Eleusine indica; Dose 15 g/ha): 5 (Level 5: growth control rate is above 85%)
- Weeding effect in post-emergence stage, Digitaria sanguinalis (level) (Digitaria sanguinalis; Dose 15 g/ha): 5 (Level 5: growth control rate is above 85%)
- Weeding effect in post-emergence stage, Abutilon theophrasti (level) (Abutilon theophrasti; Dose 15 g/ha): 5 (Level 5: growth control rate is above 85%)
- Weeding effect in post-emergence stage, Echinochloa crusgalli (level) (Echinochloa crusgalli; Dose 15 g/ha): 5 (Level 5: growth control rate is above 85%)

Structure (SMILES): CSCOC(=O)[C@@H](C)O/N=C/c1cc(-n2c(=O)cc(C(F)(F)F)n(C)c2=O)c(F)cc1Cl [233(R)]
- Weeding effect in post-emergence stage, Alopecurus japonicus (Alopecurus japonicus; Dose 15 g/ha): 5 (Level 5: growth control rate is above 85%)
- Weeding effect in post-emergence stage, Setaria viridis (Setaria viridis; Dose 15 g/ha): 5 (Level 5: growth control rate is above 85%)
- Weeding effect in post-emergence stage, Eleusine indica (Eleusine indica; Dose 15 g/ha): 5 (Level 5: growth control rate is above 85%)
- Weeding effect in post-emergence stage, Digitaria sanguinalis (Digitaria sanguinalis; Dose 15 g/ha): 5 (Level 5: growth control rate is above 85%)
- Weeding effect in post-emergence stage, Abutilon theophrasti (Abutilon theophrasti; Dose 15 g/ha): 5 (Level 5: growth control rate is above 85%)
- Weeding effect in post-emergence stage, Echinochloa crusgalli (Echinochloa crusgalli; Dose 15 g/ha): 5 (Level 5: growth control rate is above 85%)

Structure (SMILES): CO/N=C/c1cc(-n2c(=O)cc(C(F)(F)F)n(N)c2=O)c(F)cc1Cl [Control compound C, reference compound]
- Weeding effect in post-emergence stage, Alopecurus japonicus (level) (Alopecurus japonicus; Dose 15 g/ha): 1 (Level 1: growth control rate is greater than or equal to 5% and less than 20%)
- Weeding effect in post-emergence stage, Setaria viridis (level) (Setaria viridis; Dose 15 g/ha): 2 (Level 2: growth control rate is greater than or equal to 20% and less than 40%)
- Weeding effect in post-emergence stage, Eleusine indica (level) (Eleusine indica; Dose 15 g/ha): 1 (Level 1: growth control rate is greater than or equal to 5% and less than 20%)
- Weeding effect in post-emergence stage, Digitaria sanguinalis (level) (Digitaria sanguinalis; Dose 15 g/ha): 2 (Level 2: growth control rate is greater than or equal to 20% and less than 40%)
- Weeding effect in post-emergence stage, Abutilon theophrasti (level) (Abutilon theophrasti; Dose 15 g/ha): 2 (Level 2: growth control rate is greater than or equal to 20% and less than 40%)
- Weeding effect in post-emergence stage, Echinochloa crusgalli (level) (Echinochloa crusgalli; Dose 15 g/ha): 2 (Level 2: growth control rate is greater than or equal to 20% and less than 40%)
